Reference: ChEMBL document CHEMBL4819127, “Syntheses and antimicrobial activities of ogipeptin derivatives” (Bioorg Med Chem Lett, 2021)
≈ marks a conversion by molar mass, not a printed value. Calls of active or inactive are those of the source. The rule behind the calls is not given here.

Experiments:
Pseudomonas aeruginosa [1] = assay: Antibacterial activity against multidrug resistance Pseudomonas aeruginosa; format: functional, organism-based
Escherichia coli [2] = assay: Antibacterial activity against Escherichia coli; format: functional, organism-based
Klebsiella pneumoniae [3] = assay: Antibacterial activity against Klebsiella pneumoniae; format: functional, organism-based
Acinetobacter = assay: Antibacterial activity against Acinetobacter sp.; format: functional, organism-based
Escherichia coli [4] = assay: Antibacterial activity against Escherichia coli ATCC 47076 assessed as bacterial growth inhibition; format: functional
[5] = Lipophilicity, logD of compound; format: physicochemical; conditions: octanol/water
Pseudomonas aeruginosa [6] = assay: Antibacterial activity against Pseudomonas aeruginosa IHMA 1375891 assessed as bacterial growth inhibition; format: functional
Acinetobacter baumannii [7] = assay: Antibacterial activity against Acinetobacter baumannii ATCC 19606 assessed as bacterial growth inhibition; format: functional; conditions: ATCC 19606 = CIP 70.34 = JCM 6841
[8] = (§1) Cytotoxicity against HEK293 cells; format: cell-based; conditions: human, HEK293 cells
Klebsiella pneumoniae [9] = assay: Antibacterial activity against Klebsiella pneumoniae IHMA 1387833 assessed as bacterial growth inhibition; format: functional
Acinetobacter baumannii [10] = assay: Antibacterial activity against Acinetobacter baumannii IHMA 1312713 assessed as bacterial growth inhibition; format: functional
Pseudomonas aeruginosa [11] = assay: Antibacterial activity against Pseudomonas aeruginosa ATCC 27853 assessed as bacterial growth inhibition; format: functional
Klebsiella pneumoniae [12] = assay: Antibacterial activity against Klebsiella pneumoniae JCM 1662 assessed as bacterial growth inhibition; format: functional
HepG2 = assay: Cytotoxicity against human HepG2 cells; format: functional
Pseudomonas aeruginosa [13] = assay: Antibacterial activity against Pseudomonas aeruginosa ATCC 15692 assessed as bacterial growth inhibition; format: functional
Klebsiella pneumoniae [14] = assay: Antibacterial activity against Klebsiella pneumoniae ATCC 10031 assessed as bacterial growth inhibition; format: functional
Klebsiella pneumoniae [15] = assay: Antibacterial activity against Klebsiella pneumoniae ATCC 700721 assessed as bacterial growth inhibition; format: functional
HEK293 = assay: as §1; format: cell-based; conditions: human, hek293

MIC (Escherichia coli [4]) | logD [5] | MIC (Pseudomonas aeruginosa [6]) | MIC (Acinetobacter baumannii [7]) | MIC (Klebsiella pneumoniae [9]) | MIC (Acinetobacter baumannii [10]) | MIC (Pseudomonas aeruginosa [11]) | MIC (Klebsiella pneumoniae [12]) | MIC (Pseudomonas aeruginosa [13]) | MIC (Klebsiella pneumoniae [14]) | MIC (Klebsiella pneumoniae [15]) | Compound | Activity (Pseudomonas aeruginosa [1]) | Activity (Escherichia coli [2]) | Activity (Klebsiella pneumoniae [3]) | Activity (Acinetobacter) | CC50 [8] | CC50 (HepG2) | CC50 (HEK293)
 |  |  |  |  |  |  |  |  |  |  | C/C=C1\NC(=O)C(NC(=O)CCC/C=C\CCCCCC)C(O)CNC(=O)C(C(O)CN)NC(=O)C(C(O)CN)NC(=O)[C@H](CCCNC(=N)N)NC[C@H](CC(C)C)NC(=O)[C@H](CCN)NC1=O (stereo partly drawn) | Active | Active | inactive | inactive |  |  | 
2 µg/mL (≈ 2.09 µM) | 3.756 | 128 µg/mL (≈ 134 µM) | 2 µg/mL (≈ 2.09 µM) | > 256 µg/mL | > 256 µg/mL | 4 µg/mL (≈ 4.19 µM) | > 256 µg/mL | 64 µg/mL (≈ 67 µM) | 1 µg/mL (≈ 1.05 µM) | > 256 µg/mL | C/C=C1\NC(=O)C(NC(=O)CCCCCCCCC)C(O)CNC(=O)C(C(O)CN)NC(=O)C(C(O)CN)NC(=O)[C@H](CCCNC(=N)N)NC(=O)[C@H](CC(C)C)NC(=O)[C@H](CCN)NC1=O (stereo partly drawn) |  |  |  |  | > 64 µM | > 64 µM | 
 |  |  |  |  |  |  |  |  |  |  | C/C=C1\NC(=O)C(NC(=O)CCCCCCCCC)C(O)CNC(=O)C(C(O)CN)NC(=O)C(C(O)CN)NC(=O)[C@H](CCCNC(=N)N)NC[C@H](CC(C)C)NC(=O)[C@H](CCN)NC1=O (stereo partly drawn) | Active | Active | inactive | inactive |  |  | 
 |  |  |  |  |  |  |  |  |  |  | COLISTIN |  |  |  |  |  |  | > 64 µM
2 µg/mL (≈ 1.88 µM) | 2.65 | 128 µg/mL (≈ 121 µM) | 2 µg/mL (≈ 1.88 µM) | > 256 µg/mL | 128 µg/mL (≈ 121 µM) | 4 µg/mL (≈ 3.77 µM) | > 256 µg/mL | 8 µg/mL (≈ 7.54 µM) | 2 µg/mL (≈ 1.88 µM) | 2 µg/mL (≈ 1.88 µM) | C/C=C1\NC(=O)C(NC(=O)COc2ccc(/C=C/C(=O)OC(C)(C)C)cc2)C(O)CNC(=O)C(C(O)CN)NC(=O)C(C(O)CN)NC(=O)[C@H](CCCNC(=N)N)NC(=O)[C@H](CC(C)C)NC(=O)[C@H](CCN)NC1=O (stereo partly drawn) |  |  |  |  | > 64 µM | > 64 µM | 
2 µg/mL (≈ 2.04 µM) | 2.829 | > 256 µg/mL | 2 µg/mL (≈ 2.04 µM) | > 256 µg/mL | 256 µg/mL (≈ 261 µM) | 4 µg/mL (≈ 4.08 µM) | > 256 µg/mL | > 256 µg/mL | 2 µg/mL (≈ 2.04 µM) | 8 µg/mL (≈ 8.17 µM) | C/C=C1\NC(=O)C(NC(=O)c2cc3cc(Cl)ccc3o2)C(O)CNC(=O)C(C(O)CN)NC(=O)C(C(O)CN)NC(=O)[C@H](CCCNC(=N)N)NC(=O)[C@H](CC(C)C)NC(=O)[C@H](CCN)NC1=O (stereo partly drawn) |  |  |  |  | > 64 µM | > 64 µM | 
 |  |  |  |  |  |  |  |  |  |  | C/C=C1\NC(=O)C(NC(=O)CCCCCCCCCCC)C(O)CNC(=O)C(C(O)CN)NC(=O)C(C(O)CN)NC(=O)[C@H](CCCNC(=N)N)NC[C@H](CC(C)C)NC(=O)[C@H](CCN)NC1=O (stereo partly drawn) | Active | Active | inactive | inactive |  |  | 
2 µg/mL (≈ 1.9 µM) | 4.984 | 64 µg/mL (≈ 60.8 µM) | 2 µg/mL (≈ 1.9 µM) | > 256 µg/mL | 8 µg/mL (≈ 7.6 µM) | 4 µg/mL (≈ 3.8 µM) | 4 µg/mL (≈ 3.8 µM) | 64 µg/mL (≈ 60.8 µM) | 4 µg/mL (≈ 3.8 µM) | 4 µg/mL (≈ 3.8 µM) | C/C=C1\NC(=O)C(NC(=O)c2ccc(Oc3ccccc3CCCC)cc2)C(O)CNC(=O)C(C(O)CN)NC(=O)C(C(O)CN)NC(=O)[C@H](CCCNC(=N)N)NC(=O)[C@H](CC(C)C)NC(=O)[C@H](CCN)NC1=O (stereo partly drawn) |  |  |  |  | > 64 µM | > 64 µM | 
 |  |  |  |  |  |  |  |  |  |  | C/C=C1\NC(=O)C(NC(=O)CCCCC/C=C\CCCCCC)C(O)CNC(=O)C(C(O)CN)NC(=O)C(C(O)CN)NC(=O)[C@H](CCCNC(=N)N)NC[C@H](CC(C)C)NC(=O)[C@H](CCN)NC1=O (stereo partly drawn) | Active | Active | inactive | inactive |  |  | 
4 µg/mL (≈ 3.59 µM) |  | > 256 µg/mL | 256 µg/mL (≈ 230 µM) | > 256 µg/mL | > 256 µg/mL | 16 µg/mL (≈ 14.4 µM) | > 256 µg/mL | > 256 µg/mL | 4 µg/mL (≈ 3.59 µM) | > 256 µg/mL | C/C=C1\NC(=O)C(NC(=O)C2CC3(CCN(C(=O)OC(C)(C)C)CC3)c3ccccc32)C(O)CNC(=O)C(C(O)CN)NC(=O)C(C(O)CN)NC(=O)[C@H](CCCNC(=N)N)NC(=O)[C@H](CC(C)C)NC(=O)[C@H](CCN)NC1=O (stereo partly drawn) |  |  |  |  | > 64 µM | > 64 µM | 
32 µg/mL (≈ 30.1 µM) |  | > 64 µg/mL | > 64 µg/mL | > 64 µg/mL | > 64 µg/mL | 16 µg/mL (≈ 15 µM) | > 64 µg/mL | > 64 µg/mL | > 64 µg/mL | 64 µg/mL (≈ 60.1 µM) | C/C=C1\NC(=O)C(NC(=O)c2cn3c4c(c(F)c(F)cc4c2=O)OC[C@@H]3C)C(O)CNC(=O)C(C(O)CN)NC(=O)C(C(O)CN)NC(=O)[C@H](CCCNC(=N)N)NC(=O)[C@H](CC(C)C)NC(=O)[C@H](CCN)NC1=O (stereo partly drawn) |  |  |  |  | > 64 µM | > 64 µM | 
